Laboratory results: patent US20240189309A1, “TYK2 INHIBITORS AND USES THEREOF” (Sudo Biosciences Limited, priority 2021, published 2024)

Assays:
TYK2 Pseudokinase (JH2) [1] = biological target: T1, TYK2 Pseudokinase (JH2) (Homo sapiens, UniProt P29597); experiment: HEK-Blue IFNα/β reporter assay (SEAP) for profiling TYK2 pseudokinase (JH2) inhibition; type: cell-based; details: HEK-Blue IFNα/β cells, 1 ng/mL human recombinant IFNα, read-out: IFNα (TYK2 inhibitory activity, IC50)
Protocol: (§1) Example B-1: HEK-Blue™ IL-23 and IFNα/β Reporter Assays for Profiling TYK2 Pseudokinase (JH2) Inhibition
(§2) HEK-Blue™ IL-23 and IFNα/β cells with a stably-integrated cytokine receptor and STAT3 or STAT1 express STAT-inducible secreted embryonic alkaline phosphatase (SEAP) reporter gene upon cytokine stimulation. These cells are plated in DMEM (Gibco) containing 10% heat-inactivated FBS (Gibco) and 100 U/mL PenStrep (Gibco) at 37° C. under 5% CO2 conditions for 20-22 hours. The cells are then pretreated with serially diluted test compounds for 60 min prior to stimulation with either 10 ng/mL human recombinant IL-23 (Miltenyl Biotech) or 1 ng/mL human recombinant IFNα (InvivoGen) for 22-24 hours for IL-23 or 16-18 h for IFNα. SEAP induction is measured using the QUANTI Blue™ Solution (InvivoGen) according to the manufacturer's instructions.

TYK2-JH1 = biological target: T2, TYK2-JH1 (Homo sapiens, UniProt P29597); experiment: HTRF-based selectivity assay, TYK2 catalytic domain; type: biochemical; details: kinase domain (JH1), ATP 20 μM
T2 construct: recombinant purified His or GST-tagged catalytic domain for each enzyme; made in house
T2 sequence (P29597 897-1176 limits assumed): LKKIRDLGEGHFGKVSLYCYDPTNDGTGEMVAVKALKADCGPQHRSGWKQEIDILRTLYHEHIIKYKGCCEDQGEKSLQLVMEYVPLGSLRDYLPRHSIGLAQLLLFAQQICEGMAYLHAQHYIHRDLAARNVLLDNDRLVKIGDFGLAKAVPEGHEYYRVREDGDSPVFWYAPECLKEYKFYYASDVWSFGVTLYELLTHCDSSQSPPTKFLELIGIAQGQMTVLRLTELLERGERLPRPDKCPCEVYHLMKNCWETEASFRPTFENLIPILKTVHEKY
Protocol: (§3) Example B-2: HTRF-Based Selectivity Assay
(§4) The ability of compounds to inhibit the activity of JAK1, JAK2, JAK3 and TYK2 is measured using a recombinant purified His or GST-tagged catalytic domain for each enzyme (JAK1, JAK2 and TYK2 are generated in-house; JAK3 was purchased from Carna biosciences, Cat #08-046) in an HTRF format biochemical assay. The reactions employs a commercial peptide substrate from Cisbio (Cat #62TK0PEC). The basic assay protocol is as follows: first, 2.5 μL of diluted compounds (4×) in DMSO are dispensed into a 384-well Optiplate. Next, 2.5 μL of enzyme (final concentrations for enzymes are: TYK2—700 ng/mL, JAK1—80.6 ng/mL, JAK2—2.1 ng/mL and JAK3—171.8 ng/mL) is added and incubated at RT for 5-20 min. Finally, 5 μl of mixture of 2×ATP [Final concentration 20 μM for TYK2, 21.43 μM for JAK1, 14.7 μM for JAK2 and 2.12 μM for JAK3]+2× Substrate [Final concentration 217 nM for TYK2, 454.7 nM for JAK1, 200 nM for JAK2 and 257.4 nM for JAK3] is added to 384 well Optiplate. Composition of Kinase assay buffer used in the assay is as follows: HEPES 50 mM, EGTA 1 mM, MgCl2 10 mM, DTT 2 mM, Tween-20 0.01% and water. Then the plates are shaken and then incubated at 26.5° C. for 60 min.

JAK1-JH1 = biological target: T3, JAK1-JH1 (Homo sapiens, UniProt P23458); experiment: HTRF-based selectivity assay, JAK1 catalytic domain; type: biochemical; details: kinase domain (JH1), ATP 21.43 μM
T3 construct: recombinant purified His or GST-tagged catalytic domain for each enzyme; made in house
T3 sequence (P23458 875-1153 limits assumed): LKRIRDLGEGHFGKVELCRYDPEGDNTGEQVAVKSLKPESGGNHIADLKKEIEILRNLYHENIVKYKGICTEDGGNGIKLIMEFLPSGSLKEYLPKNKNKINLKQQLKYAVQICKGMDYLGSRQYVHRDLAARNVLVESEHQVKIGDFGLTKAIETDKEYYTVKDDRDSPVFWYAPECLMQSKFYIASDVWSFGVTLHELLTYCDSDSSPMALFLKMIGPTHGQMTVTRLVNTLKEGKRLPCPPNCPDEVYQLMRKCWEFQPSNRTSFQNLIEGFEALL
Protocol: as §3, §4

JAK2-JH1 = biological target: T4, JAK2-JH1 (Homo sapiens, UniProt O60674); experiment: HTRF-based selectivity assay, JAK2 catalytic domain; type: biochemical; details: kinase domain (JH1), ATP 14.7 μM
T4 construct: recombinant purified His or GST-tagged catalytic domain for each enzyme; made in house
T4 sequence (O60674 849-1124 limits assumed): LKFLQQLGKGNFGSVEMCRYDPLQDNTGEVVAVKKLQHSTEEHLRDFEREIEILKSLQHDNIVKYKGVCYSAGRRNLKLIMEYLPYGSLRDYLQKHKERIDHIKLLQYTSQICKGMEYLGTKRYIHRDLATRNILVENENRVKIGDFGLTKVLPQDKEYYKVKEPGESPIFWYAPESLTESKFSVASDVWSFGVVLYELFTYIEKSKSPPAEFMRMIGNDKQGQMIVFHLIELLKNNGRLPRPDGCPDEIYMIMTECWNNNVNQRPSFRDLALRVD
Protocol: as §3, §4

JAK3-JH1 = biological target: T5, JAK3-JH1 (Homo sapiens, UniProt P52333); experiment: HTRF-based selectivity assay, JAK3 catalytic domain; type: biochemical; details: kinase domain (JH1), ATP 2.12 μM
T5 construct: recombinant purified His or GST-tagged catalytic domain for each enzyme; purchased Carna biosciences 08-046
T5 sequence (P52333 822-1111 limits assumed): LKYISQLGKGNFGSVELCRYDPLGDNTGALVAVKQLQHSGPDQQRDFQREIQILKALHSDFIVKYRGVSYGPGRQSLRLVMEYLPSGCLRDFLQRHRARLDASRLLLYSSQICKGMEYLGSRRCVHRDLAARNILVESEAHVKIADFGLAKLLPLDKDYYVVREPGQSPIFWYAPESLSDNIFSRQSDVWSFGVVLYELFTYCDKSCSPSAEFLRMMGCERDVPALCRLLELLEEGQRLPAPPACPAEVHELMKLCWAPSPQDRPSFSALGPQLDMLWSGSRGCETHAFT
Protocol: as §3, §4

[2] = tested on: HEK-Blue™ IL-2 reporter cells; experiment: HEK-Blue IL-2 reporter assay (SEAP) for determining selectivity; type: cell-based; details: HEK-Blue IL-2 cells, 4 ng/mL human recombinant IL-2, SEAP reporter
Protocol: (§5) Example B-3: HEK-Blue™ IL-2 and IFNγ Reporter Assays for Determining Selectivity
(§6) HEK-Blue™ IL-2 and IFNγ reporter cells with a stably-integrated cytokine receptor and STAT5 or STAT1 express STAT-inducible secreted embryonic alkaline phosphatase (SEAP) reporter gene upon cytokine stimulation. These cells were plated in DMEM (Gibco) containing 10% heat-inactivated FBS (Gibco) and 100 U/mL PenStrep (Gibco) at 37° C. under 5% CO2 conditions for 20-22 hours. The cells were then pre-treated with serially diluted test compounds for 60 min prior to stimulation with either 4 ng/mL human recombinant IL-2 (Miltenyl Biotech) or 50 ng/mL human recombinant IFNγ (InvivoGen) for 24 hours. SEAP induction was measured using the QUANTI-Blue™ Solution (InvivoGen) according to the manufacturer's instructions.

[3] = tested on: HEK-Blue™ IFNγ reporter cells; experiment: HEK-Blue IFNγ reporter assay (SEAP) for determining selectivity; type: cell-based; details: 50 ng/mL human recombinant IFNγ, read-out: IFN-γ (SEAP selectivity, IC50)
Protocol: as §5, §6

TYK2 Pseudokinase (JH2) [4] = biological target: T1, TYK2 Pseudokinase (JH2); experiment: HEK-Blue IL-23 reporter assay (SEAP) for profiling TYK2 pseudokinase (JH2) inhibition; type: cell-based; set-up: HEK-Blue™ IL-23 and IFNα/β cells with a stably-integrated cytokine receptor and STAT3 or STAT1; endogenous in cells; host or cells: HEK-Blue IL-23 and HEK-Blue IFNα/β cells; details: HEK-Blue IL-23 cells, 10 ng/mL human recombinant IL-23, SEAP reporter; read-out: IL23 (TYK2 inhibitory activity, IC50)
Protocol: as §1, §2

T1 sequence (P29597 whole entry): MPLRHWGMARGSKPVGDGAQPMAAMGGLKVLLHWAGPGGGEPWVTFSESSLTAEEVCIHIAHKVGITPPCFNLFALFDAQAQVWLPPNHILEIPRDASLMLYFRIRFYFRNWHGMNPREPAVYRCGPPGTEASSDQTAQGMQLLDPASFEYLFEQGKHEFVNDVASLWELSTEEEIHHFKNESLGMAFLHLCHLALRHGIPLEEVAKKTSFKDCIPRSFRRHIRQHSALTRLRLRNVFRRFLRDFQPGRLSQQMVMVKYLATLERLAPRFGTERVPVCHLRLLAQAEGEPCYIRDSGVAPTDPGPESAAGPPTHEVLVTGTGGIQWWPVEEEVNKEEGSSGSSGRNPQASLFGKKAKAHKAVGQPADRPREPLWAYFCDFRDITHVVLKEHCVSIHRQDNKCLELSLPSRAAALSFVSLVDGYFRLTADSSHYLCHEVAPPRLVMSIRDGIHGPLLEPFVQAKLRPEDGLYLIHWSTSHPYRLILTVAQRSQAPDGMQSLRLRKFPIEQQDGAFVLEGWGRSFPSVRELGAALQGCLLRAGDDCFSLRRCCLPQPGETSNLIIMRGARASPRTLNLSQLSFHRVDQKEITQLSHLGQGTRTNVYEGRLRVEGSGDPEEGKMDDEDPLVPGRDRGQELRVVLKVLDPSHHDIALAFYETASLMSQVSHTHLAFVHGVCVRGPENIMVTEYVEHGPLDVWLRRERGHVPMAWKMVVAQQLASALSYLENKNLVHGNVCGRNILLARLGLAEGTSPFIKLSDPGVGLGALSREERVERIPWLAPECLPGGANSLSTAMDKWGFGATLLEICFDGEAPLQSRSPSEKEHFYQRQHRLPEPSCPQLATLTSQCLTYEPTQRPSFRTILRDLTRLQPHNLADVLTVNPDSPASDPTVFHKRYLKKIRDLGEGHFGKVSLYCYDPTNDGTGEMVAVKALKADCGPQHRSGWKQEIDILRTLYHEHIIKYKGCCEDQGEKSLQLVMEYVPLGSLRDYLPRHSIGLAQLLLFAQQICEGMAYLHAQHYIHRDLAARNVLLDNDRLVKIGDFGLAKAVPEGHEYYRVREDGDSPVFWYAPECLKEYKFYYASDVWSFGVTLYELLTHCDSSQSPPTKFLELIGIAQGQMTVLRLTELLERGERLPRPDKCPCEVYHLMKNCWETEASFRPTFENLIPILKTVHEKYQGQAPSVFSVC

| SMILES | IC50 (TYK2 Pseudokinase (JH2) [1]) [nM] | IC50 (TYK2-JH1) [nM] | IC50 (JAK1-JH1) [nM] | IC50 (JAK2-JH1) [nM] | IC50 (JAK3-JH1) [nM] | IC50 [2] [nM] | IC50 [3] [nM] | IC50 (TYK2 Pseudokinase (JH2) [4]) [nM] |
| --- | --- | --- | --- | --- | --- | --- | --- | --- |
| [2H]C([2H])([2H])NC(=O)c1cnc(NC(=O)C2CC2)cc1Nc1cccc2c1N(C)Cc1nnnn1-2 [Compound 11, 6-(cyclopropanecarboxamido)-N-(methyl-d3)-4-((5-methyl-4,5-dihydrotetrazolo[1,5-a]quinoxalin-6-yl)amino)nicotinamide] | 30 to 300 | > 1000 | > 1000 | > 1000 | > 1000 | > 1000 | > 1000 | < 30 |
| [2H]C([2H])([2H])NC(=O)c1cnc(Nc2cc(C)nc(C)n2)cc1Nc1cccc2c1N(C)Cc1nn(C)c(=O)n1-2 [Compound 12, 4-((2,5-dimethyl-1-oxo-1,2,4,5-tetrahydro-[1,2,4]triazolo[4,3-a]quinoxalin-6-yl)amino)-6-((2,6-dimethylpyrimidin-4-yl)amino)-N-(methyl-d3)nicotinamide] | < 30 | > 1000 | > 1000 | > 1000 | > 1000 | > 1000 | > 1000 | < 30 |
| [2H]C([2H])([2H])NC(=O)c1cnc(NC(=O)C2CC2)cc1Nc1cc(F)cc2c1N(C)Cc1nn(C)c(=O)n1-2 [Compound 16, 6-(cyclopropanecarboxamido)-4-((8-fluoro-2,5-dimethyl-1-oxo-1,2,4,5-tetrahydro-[1,2,4]triazolo[4,3-a]quinoxalin-6-yl)amino)-N-(methyl-d3)nicotinamide] | < 30 | > 1000 | > 1000 | > 1000 | > 1000 | > 1000 | > 1000 | < 30 |
| [2H]C([2H])([2H])NC(=O)c1nnc(NC(=O)C2CC2)cc1Nc1cccc2c1N(C)Cc1nn(C)c(=O)n1-2 [Compound 17, 6-(cyclopropanecarboxamido)-4-((2,5-dimethyl-1-oxo-1,2,4,5-tetrahydro-[1,2,4]triazolo[4,3-a]quinoxalin-6-yl)amino)-N-(methyl-d3)pyridazine-3-carboxamide] | < 30 | > 1000 | > 1000 | > 1000 | > 1000 | > 1000 | 30 to 300 | < 30 |
